What was measured:
eyeglobes of mice = experiment: Ex vivo lens toxicity test, whole eyeglobes cultured overnight; settings: brief treatment (10 min) with 100% ethanol, positive control
Experimental: (§1) FIG. 3. Ex vivo lens toxicity test of TAPP1. The eyeglobes of mice (aged 42 days) were cultured overnight either with control solution (media containing 45% β-cyclodextrin) or TAPP1 (TAPP1 in media containing 45% β-cyclodextrin), at 37° C. overnight, and in 95% air/5% CO2. […] To determine the effects of TAPP1 on isolated lenses, intact lenses were dissected from wild-type mouse eyeglobes, and incubated in DMEM media in a 96 well tissue culture plate. Groups of 3-6 lenses were incubated in 200 μl of media alone (negative control), 4% (2-hydroxypropyl)-β-cyclodextrin (carrier control), 8 mM hydrogen peroxide (H2O2, positive control for lens toxicity), 4 mM TAPP1-O (free radical form), 4 mM TAPP1-R (reduced form), and 4 mM of the two products of TAPP1-R hydrolysis (HP-1 and HP-2), respectively. β-cyclodextrin was included as a carrier control because all of the stock solutions contained 45% (2-hydroxypropyl)-β-cyclodextrin. The samples were incubated in 5% CO2 incubator at 37 C for 2 days.
(§2) The TAPP compositions are intended for topical delivery to the anterior portion of the eye. […] Morphological or anatomical effects are determined by comparison of TAPP-treated samples to samples incubated with either the TAPP vehicle or samples which are exposed (10 min treatment) to 100% ethanol (a positive control for lens toxicity). […]

[1] = test system: oxidation of ABTS to ABTS^•+ radical cation by metmyoglobin; experiment: In vitro anti-oxidant assay: inhibition of metmyoglobin-mediated oxidation of ABTS to ABTS•+ (absorbance at 750 nm); assay type: biochemical
[2] = Pharmacokinetics and ocular tissue distribution of total radioactivity after single topical dose in mice; assay type: in vivo, ABCA4+/−/SOD+/− mice
Experimental: (§3) FIG. 13. Pharmacokinetics and ocular tissue distribution of total radioactivity following single topical dose administration of [^14C]Compound 14 in mice. Seven ABCA4+/−/SOD+/− mice were used for this study. The mice were anesthetized and drug was administered as described above. At each specified time post dosing (0 min, 15 min, 30 min, 1 hr, 2 hr, 4 hr and 6 hr), one mouse was sacrificed by cervical dislocation and both eyeballs were enucleated. Each eyeball was rinsed in 1 ml fresh PBS to wash off unabsorbed drug. The right eye was analyzed intact. From the left eye, the following tissues were harvested: lens, anterior segment, retina and posterior segment. Total radioactivity of all tissues was determined using a liquid scintillation analyzer. […] Peak drug concentration in all tissues occurred at ˜1 hr.
as §3, with “Seven” for “FIG. 13. Pharmacokinetics and ocular tissue distribution of total radioactivity following single topical dose administration of [^14C]Compound 14 in mice. Seven”, “and an ophthalmic formulation of Compound 14, prepared as described above,” for “and drug”, “administered topically to the eye.” for “administered as described above.”

[3] = Pharmacokinetics and ocular tissue distribution of total radioactivity after single topical dose in rabbit; assay type: in vivo, New Zealand White rabbits
Experimental: (§4) FIG. 14. Pharmacokinetics and ocular tissue distribution of total radioactivity following single topical dose administration of [^14C]Compound 14 in rabbit. Four New Zealand White rabbits, age 3-4 months, weight 2.7 to 3.2 kg were used for this study. The rabbits were anesthetized and drug was administered as described above. At each specified time post dosing (0.5, 1, 2, and 4 hr), blood was collected from the ear vein of one rabbit and recovered serum volume was recorded. Rabbits were sacrificed by asphyxiation and both eyeballs were enucleated. Each eyeball was rinsed in 10 ml fresh PBS to wash off unabsorbed drug. The following tissues were harvested from each eye: anterior segment, lens, vitreous body, retina and posterior segment (without retina). Total radioactivity of each tissue and in serum was determined using a liquid scintillation analyzer (Packard Tri-Carb 2100TR). CPM was converted to DPM, and quantity of the drug (pmole) absorbed in each tissue was calculated based on specific activity (average DPM in tissues from left and right eyes). The serum level of the drug was determined as concentration (pmole/ml). [^14C]Compound 14 was rapidly taken into ocular tissues (within ˜15 min) and peak drug concentration in all tissues occurred at ˜0.5 hr.
as §4, with “Four” for “FIG. 14. Pharmacokinetics and ocular tissue distribution of total radioactivity following single topical dose administration of [^14C]Compound 14 in rabbit. Four”, “and an ophthalmic formulation of Compound 14” for “and drug”, “administered topically to the eye.” for “administered as described above.”

[4] = test system: intact lenses dissected from wild-type mouse eyeglobes; experiment: Ex vivo lens toxicity test, isolated lenses incubated 2 days; settings: 8 mM, 37 C, positive control for lens toxicity
Experimental: as §1, §2

CCO [ethanol, reference compound]
cataract formation in eyeglobes (eyeglobes of mice): caused cataract formation

CC1(C)CC(OCCCCCC(O)/C=C/C(=O)O)CC(C)(C)N1O (stereo not shown) [[^14C]Compound 14]
dose-response of anti-oxidation activity ([1]; 0, 5, 10, 20, 50, 100, 200 and 500 μM): dose-dependent anti-oxidation activity
IC50 ([1]; 0-500 μM compound, 15 μM ABTS, 2.5 μM metmyoglobin, 80 μM hydrogen peroxide, room temperature): ~10 µM
ocular tissues with lower concentrations [2]: lens and retina
ocular tissues with the highest concentrations [2]: anterior and posterior segments
time of peak drug concentration in all tissues [2]: ~1 h
time until uptake into ocular tissues [2]: ≤ 15 min
amount in vitreous body [3]: intermediate amount
ocular tissues with the highest recovery [3]: anterior and posterior segments
recovery in retina and lens, lower than in anterior and posterior segments [3]: approximately 10 fold
time of peak drug concentration in all tissues [3]: ~0.5 h
time until uptake into ocular tissues [3]: ≤ 15 min

OO [Compound H2O2, hydrogen peroxide]
cataract in isolated lenses [4]: caused obvious cataract

Reference: patent publication US20090253745A1, “MODULATORS OF OCULAR OXIDATIVE STRESS” (SIRION THERAPEUTICS, INC., priority 2007, published 2009)
